Measurements reported in paper PMC12214830, “The human RIF1-Long isoform interacts with BRCA1 to promote recombinational fork repair under DNA replication stress” (Nature Communications, 2025).

What was measured:
[1] = test system: RIF1-BRCA1 proximity in RPE-1 cells; test: RIF1-BRCA1 proximity ligation assay, RPE-1 cells; assay type: cell-based, human
Procedure: (§1) Proximity ligation assays were performed using the Duolink In Situ PLA Fluorescence Protocol (Sigma-Aldrich, DUO92101) following the manufacturer’s instruction. Cells were grown on glass coverslips and treated as indicated for specific experiments. Cells were then permeabilized with 0.5% TritonX-100 in PBS for 10 min on ice, and fixed with 3% formaldehyde, 2% sucrose in PBS for 10 min at room temperature (RT). After fixation, coverslips were blocked in 3% BSA in PBS for 1 h at RT and incubated with primary antibodies (anti-RIF1, Bethel laboratories A300-568A, 1:1000 dilution; anti-BRCA1, Santa Cruz Biotechnologies, sc-6954, 1:200 dilution), for 1 h at RT in a humidity chamber. Primary antibodies were then washed off with PLA washing buffer A supplied in the Duolink In Situ PLA kit. Coverslips were next incubated sequentially with PLA Probes (1 h at 37 °C), ligation solution (30 min at 37 °C) and amplification solution (100 min at 37 °C), with washes by washing buffer A in between each step. At the end of incubation, coverslips were washed with washing buffer B supplied in the Duolink In Situ PLA kit. Coverslips were then mounted on glass slides with PLA Mounting medium with DAPI. Images were captured by fluorescence microscopy (Zeiss Axio Imager). PLA foci number in each nucleus were analysed by CellProfiler Software[74] with a custom-made pipeline.
For EdU labelling combined with proximity ligation assay, cells were labelled with 10 µM EdU for 15 min, washed free of EdU and next incubated with medium containing 4 mM HU medium for 4 h. Cells were then permeabilized, fixed and subjected to RIF1-BRCA1 PLA procedures. After all PLA steps, EdU detection was performed following manufacturer’s instructions in the Click-iT EdU Imaging Kit (Invitrogen, C10640).
(§2) For proximity ligation assays and immunofluorescence signal intensity measurements, when comparing between two samples, statistical significance of differences was calculated by Mann-Whitney test for non-parametric distributions using GraphPad Prism software (v.9). When comparing among three or more samples, p values were calculated by Kruskal-Wallis test for non-parametric distributions with Dunn’s multiple comparisons using GraphPad Prism software (v.9). For RIF1 foci formation analysis (Fig. 6B), p values were calculated by two-tailed Student’s t test. For nuclear BRCA1 intensity fold change analyses (Fig. 6C, D), p values were calculated by two-tailed one-sample t test using GraphPad Prism software (v.9). For RAD51 foci formation analyses (Fig. 7B, E and Supplementary Fig. 7B), p values were calculated by chi-square test. For HR Reporter assay analysis (Fig. 7G and Supplementary Fig. 7L), p values were calculated by two-tailed paired Student’s t test. For micronuclei frequency analysis (Fig. 7H), p values were calculated by one-tailed paired Student’s t test. All Student’s t tests were performed with Excel T.TEST function. Chi-square tests were performed with the online Chi-square test calculator at https://www.socscistatistics.com/tests/chisquare2/default2.aspx. Sample number n for all box-and-whisker plots and dot plots are listed in Supplementary Data 1.

[2] = test system: RIF1-BRCA1 proximity in HeLa cells; test: RIF1-BRCA1 proximity ligation assay, HeLa cells; assay type: cell-based, human
Procedure: as §1, §2

[3] = Fig S4F (repeat of 4E), 0h post-HU
[4] = Fig S4F (repeat of 4E), 4h post-HU
[5] = Fig S4F (repeat of 4E), 8h post-HU
[6] = Fig 5G/H, HeLa RIF1 KO + RIF1-L-pp1bs, HU 4 mM 24 h
[7] = Fig 5G/H, HeLa RIF1 KO + RIF1-L, HU 4 mM 24 h
[8] = Fig 5G/H, HeLa RIF1 KO, HU 4 mM 24 h
[9] = Fig S3F, HeLa RIF1-L-APKF, HU 4mM 24hr
[10] = Fig S3F, HeLa RIF1-L, HU 4mM 24hr
[11] = Fig S3F, HeLa RIF1-S, HU 4mM 24hr
[12] = Fig S4H, HeLa +RIF1-L, HU 4mM 24hr
[13] = Fig S4I, HeLa +RIF1-L, HU 4mM 24hr
[14] = Fig S5G (repeat), HeLa RIF1 WT (RIF1-L), HU 4mM 24hr
[15] = Fig S5G (repeat), HeLa RIF1 pp1bs, HU 4mM 24hr
[16] = Fig S5I, HeLa RIF1-L-pp1bs-APKF, HU 4mM 24hr
[17] = Fig S5I, HeLa RIF1-L-pp1bs, HU 4mM 24hr

NC(=O)NO [HU, hydroxyurea]
RIF1-BRCA1 proximity signal after HU removal ([1]; 4 h after HU removal): retained | RIF1-BRCA1 proximity signal after HU removal ([1]; 8 h post-release): declined to baseline level | RIF1-BRCA1 PLA foci per nucleus, mean ([1]; Fig 3B, HU 4 mM 3 h): 1.331 | RIF1-BRCA1 PLA foci per nucleus, median ([1]; Fig 3B, HU 4 mM 3 h): 1 | RIF1-BRCA1 PLA foci per nucleus, mean ([1]; Fig 3B, HU 24 h): 3.899 | RIF1-BRCA1 PLA foci per nucleus, median ([1]; Fig 3B, HU 24 h): 3 | RIF1-BRCA1 PLA foci per nucleus, mean ([1]; Fig 3C, HU 4 mM 24 h): 2.024 | RIF1-BRCA1 PLA foci per nucleus, median ([1]; Fig 3C, HU 4 mM 24 h): 1 | RIF1-BRCA1 PLA foci per nucleus, mean ([1]; Fig 4E, 0h post-HU): 1.913 | RIF1-BRCA1 PLA foci per nucleus, median ([1]; Fig 4E, 0h post-HU): 1, 1, 1, 1 | RIF1-BRCA1 PLA foci per nucleus, mean ([1]; Fig 4E, 4h post-HU): 1.712 | RIF1-BRCA1 PLA foci per nucleus, median ([1]; Fig 4E, 4h post-HU): 1, 1, 1, 1 | RIF1-BRCA1 PLA foci per nucleus, mean ([1]; Fig 4E, 8h post-HU): 0.946 | RIF1-BRCA1 PLA foci per nucleus, median ([1]; Fig 4E, 8h post-HU): 1, 1, 1, 1 | RIF1-BRCA1 PLA foci per nucleus, mean ([1]; Fig 4F, HU 4 mM 24 h): 7.107 | RIF1-BRCA1 PLA foci per nucleus, median ([1]; Fig 4F, HU 4 mM 24 h): 5 | RIF1-BRCA1 PLA foci per nucleus, mean [1, 3]: 0.786 | RIF1-BRCA1 PLA foci per nucleus, median [1, 3]: 0, 0, 0, 0 | RIF1-BRCA1 PLA foci per nucleus, mean [1, 4]: 0.617 | RIF1-BRCA1 PLA foci per nucleus, median [1, 4]: 0, 0, 0, 0 | RIF1-BRCA1 PLA foci per nucleus, mean [1, 5]: 0.355 | RIF1-BRCA1 PLA foci per nucleus, median [1, 5]: 0, 0, 0, 0 | RIF1-BRCA1 PLA foci per nucleus, mean ([1]; Fig S4G (repeat), HU 4mM 24hr): 7.828 | RIF1-BRCA1 PLA foci per nucleus, median ([1]; Fig S4G (repeat), HU 4mM 24hr): 6 | RIF1-BRCA1 PLA foci per nucleus, mean ([1]; Fig S4J, HU 4mM 24hr): 7.107 | RIF1-BRCA1 PLA foci per nucleus, median ([1]; Fig S4J, HU 4mM 24hr): 0, 5, 5 | RIF1-BRCA1 PLA foci ([1]; HU 3 h): observable | RIF1-BRCA1 PLA foci ([1]; HU 24 h): significantly increased | RIF1-BRCA1 PLA foci per nucleus, mean [2, 6]: 45.51 | RIF1-BRCA1 PLA foci per nucleus, median [2, 6]: 42 | RIF1-BRCA1 PLA foci per nucleus, mean [2, 7]: 27.55 | RIF1-BRCA1 PLA foci per nucleus, median [2, 7]: 21 | RIF1-BRCA1 PLA foci per nucleus, mean [2, 8]: 1.394 | RIF1-BRCA1 PLA foci per nucleus, median [2, 8]: 1 | RIF1-BRCA1 PLA foci per nucleus, mean [2, 9]: 14.65 | RIF1-BRCA1 PLA foci per nucleus, median [2, 9]: 12 | RIF1-BRCA1 PLA foci per nucleus, mean [2, 10]: 18.04 | RIF1-BRCA1 PLA foci per nucleus, median [2, 10]: 15 | RIF1-BRCA1 PLA foci per nucleus, mean [2, 11]: 13.85 | RIF1-BRCA1 PLA foci per nucleus, median [2, 11]: 12 | RIF1-BRCA1 PLA foci per nucleus, mean [2, 12]: 21.43 | RIF1-BRCA1 PLA foci per nucleus, median [2, 12]: 20 | RIF1-BRCA1 PLA foci per nucleus, mean [2, 13]: 18.83 | RIF1-BRCA1 PLA foci per nucleus, median [2, 13]: 2, 17, 17 | RIF1-BRCA1 PLA foci per nucleus, mean [2, 14]: 40.69 | RIF1-BRCA1 PLA foci per nucleus, median [2, 14]: 37 | RIF1-BRCA1 PLA foci per nucleus, mean [2, 15]: 62.09 | RIF1-BRCA1 PLA foci per nucleus, median [2, 15]: 62 | RIF1-BRCA1 PLA foci per nucleus, mean [2, 16]: 46.58 | RIF1-BRCA1 PLA foci per nucleus, median [2, 16]: 42 | RIF1-BRCA1 PLA foci per nucleus, mean [2, 17]: 53.47 | RIF1-BRCA1 PLA foci per nucleus, median [2, 17]: 53
